Results taken from paper PMC11189555, “Aryl amino acetamides prevent Plasmodium falciparum ring development via targeting the lipid-transfer protein PfSTART1” (Nature Communications, 2024).
Where “and” joins values, the source holds several entries; their conditions need not be identical. Equal entries are not always repeated. Where two headings read alike, the source gives them in different places.

Tests used:
CR-N309K parasites = test: Growth inhibition assay (72 h, LDH activity); format: cell-based, Plasmodium falciparum; conditions: for inhibition at 5 µM: read-out: NORMALISED (growth inhibition, LDH absorbance)
Protocol: (§1) Parasite growth assays with inhibitory compounds were performed as per[11] and are fully described in the Supplementary Information.
(§2) Molecular biology and transfection of P. falciparum: CRISPR method.
(§3) The full 5’ homology region of pfstart1 (either WT, N309K or N330K) was amplified from pPfSTART1-HA-2A-Neo-glmS with the same 5’ BglII primer and a new 3’ primer that replaced with PstI with SpeI and introduced a stop codon. The PCR product was then digested with BglII and SpeI and inserted into similarly digested p1.2 parasite vector2. The p1.2 vector had previously been inserted with a homology region amplified from the 3’ end of the pfstart1 gene (3’HB) to form a second homology block for double recombination. The primers used to amplify 3’HB are listed primers listed in […]
(§4) 60 μg of p1.2-PfSTART1(WT/N309K/N330K) plasmid was linearised with KasI, precipitated in 3 M sodium acetate and ethanol (70% final concentration) overnight at -20°C. The DNA pellet was washed in cold 70% ethanol and resuspended in cytomix 3.
(§5) 50 μ M of crRNA ( Table S 2) and 50 μM of tracRNA (Integrated DNA Technologies) were allowed to form a duplex (5 min at 95°C), and Cas9 enzyme (Integrated DNA Technologies) was added, and incubated for 20 min at room temperature 4. This crRNA -tracRNA -Cas9 mix was added to each DNA preparation and transfected to 3D7 ring parasites using the Bio -Rad Gene Pulser at 310 V and 950 μF.
(§6) Parasites containing the transfected DNA were selected using 2.5 nM WR99210 (Jacobus). Parasites lines were cloned using limiting dilution. Correct integration was tested by PCR (using primer START_5’UTR.F and START_Int.R1 , Table S 2), and sequencing was done using the primers START_3F and START_Int.R2 (Table S 2).
(§7) Growth inhibition assays. Synchronised ring-stage parasites (0.3-0.6% parasitemia, 2% haematocrit) were grown for 72 h in a serial-dilution of the compound under […]
(§8) and compound 4. Note that M-833 was first purchased from MolPort (MolPort -002-267-916) then made in-house at WEHI: the differences observed in EC50s across experiments are attributed to the different batches of M -833. For some experiments, 0, 0.25 or 2.5 mM of glucosamine (GlcN) was also added. Experiments were set up in technical duplicates or triplicates. Following a freeze -thaw cycle, lactate dehydrogenase (LDH) activity was assessed as an indicator of parasite growt h 5. 30 μL of parasite culture was incubated for 30 min in the dark with 75 μL Malstat mixture (0.1 M Tris pH 9.0, 20 g/L lactic acid, pH 7.5, 0.2% Triton-X100, 0.5 g/L acetylpyridine adenine dinucleotide (APAD, Sigma), 200 μg/mL nitroblue tetrazolium (NBT; Sigma), 1 μg/mL phenozine ethosulfate (PES; Sigma)). Absorbance was then measured at 650 nm, transformed using the formula below, plotted against the logarithm of the concentrations, and a non-linear regression (log(inhibitor) vs. response, variable slope) was calculated using GraphPad Prism to assess the half-inhibitory […]
(§9) Growth inhibition % = (1 − average(sample)− average(uRBC)) ∗ 100 […]
(§10) The DMSO samples were also used to assess growth of parasite in the presence of 0.25 and 2.5 mM GlcN (normalised by DMSO in 0 mM GlcN).
(§11) Egress, invasion & recovery assay. To measure egress, invasion and follow up recovery in the presence of different compounds, we adapted the method developed in6, using Hyp1-Nluc parasites7. These parasites episomally express the exported PEXEL protein Hyp1 (PF3D7_0113300) tagged with a NanoLuc luciferase (NLuc) and were selected with 2.5 nM WR99210 (Jacobus). Highly synchronised schizonts were obtained using ML10 (LifeArc) and sorbitol synchronisation, and Percoll-purified (the culture was gently layered over 67% Percoll (Cytiva) in RPMI, and centrifuged for 15 min at 1500 g and the schizont layer was collected and washed). In a 96-well plate, […]

CR-N330K parasites = test: Growth inhibition assay (72 h, LDH activity); format: cell-based, Plasmodium falciparum
Protocol: as §1, §2, §3, §4, §5, §6, §7, §8, §9, §10, §11

[1] = 0.25 mM GlcN, dilution point 1 of 10, starting concentration 5 uM
[2] = 0.25 mM GlcN, dilution point 2 of 10 from starting concentration 5 uM
[3] = 0.25 mM GlcN, dilution point 3 of 10 from starting concentration 5 uM
[4] = 0.25 mM GlcN, dilution point 6 of 10 from starting concentration 5 uM
[5] = 2.5 mM GlcN, dilution point 1 of 10, starting concentration 5 uM
[6] = 2.5 mM GlcN, dilution point 2 of 10 from starting concentration 5 uM
[7] = 2.5 mM GlcN, dilution point 3 of 10 from starting concentration 5 uM
[8] = 2.5 mM GlcN, dilution point 4 of 10 from starting concentration 5 uM
[9] = 2.5 mM GlcN, dilution point 5 of 10 from starting concentration 5 uM
[10] = 2.5 mM GlcN, dilution point 6 of 10 from starting concentration 5 uM

With CC(C)(Nc1ccc(Cl)c(S(=O)(=O)N2CCOCC2)c1)C(=O)Nc1ccc(F)c(Cl)c1 [W-991] the “NORMALISED (growth inhibition, LDH absorbance vs DMSO and uRBC)” value (CR-N309K parasites; 0 mM GlcN, W991 at 185.185 nM) was 14.1711 and 15.2813, the “NORMALISED (growth inhibition, LDH absorbance vs DMSO and uRBC)” value (CR-N309K parasites; 0 mM GlcN, W991 at 555.556 nM) was 55.508 and 36.7800 and the “NORMALISED (growth inhibition, LDH absorbance vs DMSO and uRBC)” value (CR-N309K parasites; 0 mM GlcN, W991 at 1666.67 nM) was 87.9679 and 76.9970. The “NORMALISED (growth inhibition, LDH absorbance vs DMSO and uRBC)” value (CR-N309K parasites; 0 mM GlcN, W991 at 5000 nM) was 96.4706 and 92.1927, the “NORMALISED (growth inhibition, LDH absorbance)” value (CR-N309K parasites; [1]) was 94.7776 and the “NORMALISED (growth inhibition, LDH absorbance)” value (CR-N309K parasites; [2]) was 100.739 and 90.0516. For the same compound, the “NORMALISED (growth inhibition, LDH absorbance)” value (CR-N309K parasites; [3]) was 80.0443 and 56.9500, the “NORMALISED (growth inhibition, LDH absorbance)” value (CR-N309K parasites; 0.25 mM GlcN, dilution point 5 of 10 from starting concentration 5 uM) was 17.9601 and 13.8403 and the “NORMALISED (growth inhibition, LDH absorbance)” value (CR-N309K parasites; [4]) was 8.426 and 8.7470. The “NORMALISED (growth inhibition, LDH absorbance)” value (CR-N309K parasites; [5]) was 83.5476, the “NORMALISED (growth inhibition, LDH absorbance)” value (CR-N309K parasites; [6]) was 82.9906 and the “NORMALISED (growth inhibition, LDH absorbance)” value (CR-N309K parasites; [7]) was 95.6522 and 78.1705. The “NORMALISED (growth inhibition, LDH absorbance)” value (CR-N309K parasites; [8]) was 71.5415 and 48.7789, the “NORMALISED (growth inhibition, LDH absorbance)” value (CR-N309K parasites; [9]) was 41.502 and 22.2365 and the “NORMALISED (growth inhibition, LDH absorbance)” value (CR-N309K parasites; [10]) was 17.3913 and 10.0471. The “NORMALISED (growth inhibition, LDH absorbance)” value (CR-N309K parasites; 2.5 mM GlcN, dilution point 8 of 10 from starting concentration 5 uM) was 5.138 and 4.2631, the “NORMALISED (growth inhibition, LDH absorbance)” value (CR-N309K parasites; 2.5 mM GlcN, dilution point 9 of 10 from starting concentration 5 uM) was 11.3967 and 7.51 and the “fold less susceptible than the 3D7 and CR-WT controls” value (CR-N309K parasites; Fig 4C) was “around 600 fold”. For the same compound, the “fold sensitised on PfSTART1 knock-down with GlcN” value (CR-N309K parasites; Fig 4C) was 5 fold, the EC50 (CR-N309K parasites; Fig 4C, 0 mM GlcN, n = 3, read-out: EC50 W-991 (95% confidence interval)) was under 700 nM and the inhibition at 5 µM (CR-N309K parasites; Plasmodium falciparum, 0.25 mM GlcN, dilution point 1 of 10, starting concentration 5 uM) was 101%. For the same compound, the inhibition at 5 µM (CR-N309K parasites; Plasmodium falciparum, 2.5 mM GlcN, dilution point 1 of 10, starting concentration 5 uM) was 94.5%, the EC50 (CR-N309K parasites; Plasmodium falciparum, read-out: EC50 W-991 (95% confidence interval), Fig 4C, 0 mM GlcN, n = 3) was 687 nM and the EC50 (CR-N309K parasites; Plasmodium falciparum, read-out: EC50 W-991 (95% confidence interval), Fig 4C, 0.25 mM GlcN, n = 3) was 362 nM. The EC50 (CR-N309K parasites; Plasmodium falciparum, read-out: EC50 W-991 (95% confidence interval), Fig 4C, 2.5 mM GlcN, n = 3) was 137 nM, the EC50 (CR-N309K parasites; read-out: EC50 W-991 (95% confidence interval), Fig 4C, 0 mM GlcN, n = 3) was 687 nM and the “NORMALISED (growth inhibition, LDH absorbance)” value (CR-N330K parasites; 0 mM GlcN, dilution point 1 of 10, starting concentration 5 uM) was 89.5809 and 91.9275. The “NORMALISED (growth inhibition, LDH absorbance)” value (CR-N330K parasites; 0 mM GlcN, dilution point 2 of 10 from starting concentration 5 uM) was 82.5498 and 75.3344, the “NORMALISED (growth inhibition, LDH absorbance)” value (CR-N330K parasites; [1]) was 90.7025 and the “NORMALISED (growth inhibition, LDH absorbance)” value (CR-N330K parasites; [2]) was 83.8227. The “NORMALISED (growth inhibition, LDH absorbance)” value (CR-N330K parasites; [3]) was 67.3993 and 45.0538, the “NORMALISED (growth inhibition, LDH absorbance)” value (CR-N330K parasites; [4]) was 5.889 and 5.4992 and the “NORMALISED (growth inhibition, LDH absorbance)” value (CR-N330K parasites; [5]) was 66.3651 and 90.1101. For the same compound, the “NORMALISED (growth inhibition, LDH absorbance)” value (CR-N330K parasites; [6]) was 62.0066 and 84.8366, the “NORMALISED (growth inhibition, LDH absorbance)” value (CR-N330K parasites; [7]) was 63.3224 and 83.4457 and the “NORMALISED (growth inhibition, LDH absorbance)” value (CR-N330K parasites; [8]) was 52.3849 and 74.2725. The “NORMALISED (growth inhibition, LDH absorbance)” value (CR-N330K parasites; [9]) was 40.7072 and 51.6938 and the “NORMALISED (growth inhibition, LDH absorbance)” value (CR-N330K parasites; [10]) was 28.9474 and 29.6954.
